Where a name gives a salt, the structure may show the parent alone. Read-outs that look alike come from different tables or passages of the source.
Assays:
A549 cells = assay: In vitro cytotoxicity of the peptide derivative (I), MTS method, A549 cells; type: cell-based, human
Text: (§1) The cytotoxicity of the peptide derivative (I) or a pharmaceutically acceptable salt thereof, or the conjugate including the peptide derivative (I) or a pharmaceutically acceptable salt thereof can be evaluated with an in vitro study. Examples of the in vitro studies include the trypan blue dye exclusion method, the lactate dehydrogenase (LDH) activity assay, [^3H]thymidine incorporation method, or propidium iodide nuclear stain that each measures the number of dead cells or surviving cells post treated with the compound; a method using dyes such as MTT, MTS, and WST (Current Protocol in Toxicology, (2000), 2.6.1-2.6.27); or a method in which the amount of ATP is measured using CellTiter-Glow (Promega Corporation) and the like, and preferably include the method in which the number of surviving cells post treated with the compound is measured by using the MTS method to determine values of the cytotoxicity at that time from 50% effect-concentration (EC50). Furthermore, in the evaluation of the cytotoxicity of the conjugate including the peptide derivative (I) or a pharmaceutically acceptable salt thereof, preferred method is the one that for a certain time, cells are treated with a medium containing the compound, the cells are then transferred to a medium not containing the compound, and the number of surviving cells are measured after cultivation for additional certain time (Bioconjugate Chemistry., 2014; 25: pp. 560-568). For the in vitro studies, human ovarian cancer cell SKOV-3 cells, human alveolar basement epithelial gland cancer cell A549 cells, mouse lymphocytic leukocyte L1210 cells and the like are used.

[1] = Parallel Artificial Membrane Permeation Assay (PAMPA), Pre-coated PAMPA Plate System (Corning)
Method: Reference Example 14, the Compound of Reference Example 16, and the Compound of Comparative Example was Evaluated by Using Pre-Coated PAMPA PlateSystem (Corning)
A frozen-stored, Pre-coated PAMPA Plate System was allowed to stand at room temperature for thirty minutes or more. Subsequently, 320 μL of the standard solution was added to a Donor side plate of Pre-coated PAMPA Plate System, and 200 μL of the PBS containing 20% of methanol was added to an Acceptor side plate. Both of the plates were set for the system, and the plates allowed to stand at room temperature for five hours. The reaction liquid in each well of the Donor side and Acceptor side plates was subjected to LC/MS analysis (hereinafter, LC/MS-3), and the concentration of the compounds in each well calculated.
Using the obtained concentration of the compounds in the reaction liquid in each well, the membrane permeability coefficients (Pe) (cm/s) were calculated by the following formula: Cequilibrium=[…] Pe=[−ln(1−CA/Cequilibrium)]/S×(1/VD+1/VA)×t Cequilibrium: Equilibrium concentration of the wells in the Donor side and Acceptor side plates CD: Concentration after five hours of the wells in the Donor side plate (mmol/L) VD: Volume of the standard solution added to the wells in the Donor side plate (0.32 mL) CA: Concentration after five hours of the wells in the Acceptor side plate (mmol/L) VA: Volume of the PBS containing 20% of methanol added to the wells in the Acceptor side plate (0.2 mL) S: Surface of the membrane (0.3 cm^2) t: Standing time 18,000 s (=5 hrs).

L1210 cells = assay: In vitro cytotoxicity of the peptide derivative (I), MTS method, L1210 cells; type: cell-based, mouse
Text: as §1

SKOV-3 cells = assay: In vitro cytotoxicity of the peptide derivative (I), MTS method, SKOV-3 cells; type: cell-based, human
Text: as §1

| SMILES | EC50 (A549 cells; Homo sapiens) [nM] | Papp at 5 h, 200 μmol/L [1] [×10⁻⁶ cm/s] | EC50 (L1210 cells; Mus musculus) [nM] | EC50 (SKOV-3 cells; Homo sapiens, SK-OV-3) [nM] | EC50 (A549 cells) [nM] | Membrane Permeability Coefficient ([1]; 200 μmol/L in PBS containing 20% of methanol, room temperature, five hours, N.D. = Acceptor side concentration less than lower limit of determinate quantity) | EC50 (L1210 cells) [nM] | EC50 (SKOV-3 cells) [nM] |
| --- | --- | --- | --- | --- | --- | --- | --- | --- |
| CC[C@H](C)[C@@H]([C@@H](CC(=O)N1CCC[C@H]1[C@H](OC)[C@@H](C)C(=O)N[C@@H](Cc1ccccc1)c1nc(C(=O)NCCc2ccc(O)cc2)cs1)OC)N(C)C(=O)[C@@H](NC(=O)[C@H](C(C)C)N(C)C)C(C)C [Example 11, 2-((S)-1-((2R,3R)-3-((S)-1-((3R,4S,5S)-4-((S)-2-((S)-2-(dimethylamino)-3-methylbutanamido)-N,3-dimethylbutanamido)-3-methoxy-5-methylheptanoyl)pyrrolidin-2-yl)-3-methoxy-2-methylpropanamido)-2-phenylethyl)-N-(4-hydroxyphenethyl)thiazole-4-carboxamide] | 1.31 | 0.36 | 5.61 | 0.37 |  |  |  |  |
| CCNC(=O)c1csc([C@H](Cc2ccccc2)NC(=O)[C@@H](C)[C@@H](OC)[C@@H]2CCCN2C(=O)C[C@@H](OC)[C@H]([C@@H](C)CC)N(C)C(=O)[C@@H](NC(=O)[C@H](C(C)C)N(C)C)C(C)C)n1 [Comparative Example, reference compound] |  |  |  |  | 0.74 | 1.68 10^−6 cm/s | 6.51 | 0.55 |
| CC[C@H](C)[C@@H]([C@@H](CC(=O)N1CCC[C@H]1[C@H](OC)[C@@H](C)C(=O)N[C@@H](Cc1ccccc1)c1nc(C(=O)N(C)CCS)cs1)OC)N(C)C(=O)[C@@H](NC(=O)[C@H](C(C)C)N(C)C)C(C)C [Example 3] | 1.22 | 1.14 | 6.96 | 1.05 |  |  |  |  |
| CC[C@H](C)[C@@H]([C@@H](CC(=O)N1CCC[C@H]1[C@H](OC)[C@@H](C)C(=O)N[C@@H](Cc1ccccc1)c1nc(C(=O)OCCN)cs1)OC)N(C)C(=O)[C@@H](NC(=O)[C@H](C(C)C)N(C)C)C(C)C [Example 4] | 0.83 | 0.01 | 28.7 | 0.85 |  |  |  |  |
| CC[C@H](C)[C@@H]([C@@H](CC(=O)N1CCC[C@H]1[C@H](OC)[C@@H](C)C(=O)N[C@@H](Cc1ccccc1)c1nc(C(=O)NCCN)cs1)OC)N(C)C(=O)[C@@H](NC(=O)[C@H](C(C)C)N(C)C)C(C)C [Reference Example 12, N-(2-aminoethyl)-2-((S)-1-(((2S,3R)-3-((S)-1-((3R,4S,5S)-4-((S)-2-((S)-2-(dimethylamino)-3-methylbutanamido)-N, 3-dimethylbutanamido)-3-methoxy-5-methylheptanoyl)pyrrolidin-2-yl)-3-methoxy-2-methylpropanamido)-2-phenylethyl)thiazole-4-carboxamidedihydrochloride, reference compound] | > 10 | 0.01 | > 50 | > 10 |  |  |  |  |
| CC[C@H](C)[C@@H]([C@@H](CC(=O)N1CCC[C@H]1[C@H](OC)[C@@H](C)C(=O)N[C@@H](Cc1ccccc1)c1nc(C(=O)N(C)CCNC)cs1)OC)N(C)C(=O)[C@@H](NC(=O)[C@H](C(C)C)N(C)C)C(C)C [Example 6, 2-((S)-1-((2R,3R)-3-((S)-1-((3R,4S,5S)-4-((S)-2-((S)-2-(dimethylamino)-3-methylbutanamido)-N,3-dimethylbutanamido)-3-methoxy-5-methylheptanoyl)pyrrolidin-2-yl)-3-methoxy-2-methylpropanamido)-2-phenylethyl)-N-methyl-N-(2-(methylamine)ethyl)thiazole-4-carboxamide dihydrochloride] | 1.94 |  | 17.2 | 0.22 |  |  |  |  |
| CC[C@H](C)[C@@H]([C@@H](CC(=O)N1CCC[C@H]1[C@H](OC)[C@@H](C)C(=O)N[C@@H](Cc1ccccc1)c1nc(C(=O)N(C)CCN)cs1)OC)N(C)C(=O)[C@@H](NC(=O)[C@H](C(C)C)N(C)C)C(C)C [Example 5, N-(2-aminoethyl)-2-((S)-1-((2R,3R)-3-((S)-1-((3R,4S,5S)-4-((S)-2-((S)-2-(dimethylamino)-3-methylbutanamido)-N,3-dimethylbutanamido)-3-methoxy-5-methylheptanoyl)pyrrolidin-2-yl)-3-methoxy-2-methylpropanamido)-2-phenylethyl)-N-methylthiazole-4-carboxamide dihydro chloride] | 0.81 | 0.01 | 11.7 | 0.56 |  |  |  |  |
| CC[C@H](C)[C@@H]([C@@H](CC(=O)N1CCC[C@H]1[C@H](OC)[C@@H](C)C(=O)N[C@@H](Cc1ccccc1)c1nc(C(=O)OCCS)cs1)OC)N(C)C(=O)[C@@H](NC(=O)[C@H](C(C)C)N(C)C)C(C)C [Example 2, 2-mercaptoethyl 2-((S)-1-((2R,3R)-3-((S)-1-((3R,4S,5S)-4-((S)-2-((S)-2-(dimethylamino)-3-methylbutanamido)-N,3-dimethylbutanamido)-3-methoxy-5-methylheptanoyl)pyrrolidin-2-yl)-3-methoxy-2-methylpropanamido)-2-phenylethyl)thiazole-4-carboxylate] | 6.88 | 0.005 | 14.2 | 0.13 |  |  |  |  |
| CC[C@H](C)[C@@H]([C@@H](CC(=O)N1CCC[C@H]1[C@H](OC)[C@@H](C)C(=O)N[C@@H](Cc1ccccc1)c1nc(C(=O)NCCNC)cs1)OC)N(C)C(=O)[C@@H](NC(=O)[C@H](C(C)C)N(C)C)C(C)C [Reference Example 14, 2-((S)-1-(((2S,3R)-3-((S)-1-((3R,4S,5S)-4-((S)-2-((S)-2-(dimethylamino)-3-methylbutanamido)-N,3-dimethylbutanamido)-3-methoxy-5-methylheptanoyl)pyrrolidin-2-yl)-3-methoxy-2-methylpropanamido)-2-phenylethyl)-N-(2-(methylamino)ethyl)thiazole-4-carboxamidedihydrochloride, reference compound] | 9.85 | 0.004 | 26.8 | > 10 |  |  |  |  |
| CC[C@H](C)[C@@H]([C@@H](CC(=O)N1CCC[C@H]1[C@H](OC)[C@@H](C)C(=O)N[C@@H](Cc1ccccc1)c1nc(C(=O)NCCO)cs1)OC)N(C)C(=O)[C@@H](NC(=O)[C@H](C(C)C)N(C)C)C(C)C [Example 7] | 1.74 | 0.02 | 28.4 | 4.67 |  |  |  |  |
| CC[C@H](C)[C@@H]([C@@H](CC(=O)N1CCC[C@H]1[C@H](OC)[C@@H](C)C(=O)N[C@@H](Cc1ccccc1)c1nc(C(=O)OCCO)cs1)OC)N(C)C(=O)[C@@H](NC(=O)[C@H](C(C)C)N(C)C)C(C)C [Example 8, 2-hydroxyethyl 2-((S)-1-((2R,3R)-3-((S)-1-((3R,4S,5S)-4-((S)-2-((S)-2-(dimethylamino)-3-methylbutanamido)-N,3-dimethylbutanamido)-3-methoxy-5-methylheptanoyl)pyrrolidin-2-yl)-3-methoxy-2-methylpropanamido)-2-phenylethyl)thiazole-4-carboxylate] | 1.75 | 0.04 | 4.74 | 0.09 |  |  |  |  |
| CC[C@H](C)[C@@H]([C@@H](CC(=O)N1CCC[C@H]1[C@H](OC)[C@@H](C)C(=O)N[C@@H](Cc1ccccc1)c1nc(C(=O)NCCc2ccc(N)cc2)cs1)OC)N(C)C(=O)[C@@H](NC(=O)[C@H](C(C)C)N(C)C)C(C)C [Example 10] | 1.08 | 0.3 | 4.05 | 0.27 |  |  |  |  |
| CC[C@H](C)[C@@H]([C@@H](CC(=O)N1CCC[C@H]1[C@H](OC)[C@@H](C)C(=O)N[C@@H](Cc1ccccc1)c1nc(C(=O)NCCNC(=O)CCS)cs1)OC)N(C)C(=O)[C@@H](NC(=O)[C@H](C(C)C)N(C)C)C(C)C [Reference Example 16, reference compound] | > 10 |  | > 50 | > 10 |  |  |  |  |
